Read-outs that look alike come from different tables or passages of the source.
Assays:
fungal species [1] = assay: 30-III fungal test on 1"X1" chip of dried latex, growth observed after 7 days; format: cell-based; details: 7 day incubation
Method: The results observed in the G-21 study were also duplicated in a shorter (7 day incubation) fungal study (referred to herein as 30-III).
The 30-III fungal test was based on making a 1″X1″ chip of the dried latex and inoculating the fungal species directly on to the sample and then observing its growth after 7 days. This is not as rigorous a test as the G-21 test, but gave a quick indication of the efficacy of the additives.

fungal species [2] = assay: ASTM D-3273 on coated paper, increased coating thickness, spores in humidity chamber, 28 days; format: cell-based
Method: A second round of testing was performed using an increased coating thickness to ensure full coverage of the paper surface. The second round of testing of the coated paper samples were tested according to ASTM D-3273. In this study, the duration remained the same (28 days), but the fungal species were not directly inoculated on the surface. Rather, they were maintained in the humidity chamber as spores that would then land on the surface of the coated paper as in a real world example. The results of this study are outlined in FIG. 3.

[3] = Solubility of additives used in polymerization; format: physicochemical
[4] = Stability of additive during polymerization; format: physicochemical; details: incorporated in relatively high amounts
From the text: Ideally, the materials are substantially unreactive during the polymerization conditions, so they are not degraded during polymerization. In some embodiments, low levels of additive might be observed, whether due to degradation, or difficulty in extraction from the polymer latex. In any case, retention of the additive in the latex leads to retention of antifungal properties in the finished paper.
The polymerization temperature was investigated as a potential contributor to degradation, and it was kept as low as was feasible (typically <70° C.). The samples were stripped at the end of polymerization to the desired solids content.

| Compound | antifungal performance (fungal species [1]) | antifungal performance (fungal species [2]) | Solubility ([3]; in monomer where given) | Solubility [3] | further results |
| --- | --- | --- | --- | --- | --- |
| Zinc pyrithione [Microban Z01] | performed well | did not perform well | Insoluble in |  |  |
| Oc1cc(Cl)ccc1Oc1ccc(Cl)cc1Cl [Triclosan, Chlorodiphenyl ether, reference compound] |  |  | Solid. Fairly |  |  |
| Cc1ccc(S(=O)(=O)C(I)I)cc1 [Amical AF, Diiodomethyltoluyl sulfone] | some fungal inhibition | effective | Limited |  | degradation during polymerization [4]: degraded |
| [Na+].[O-]c1ccccc1-c1ccccc1 [Microban P2, Sodium orthophenyl phenate] |  |  |  |  | Solubility ([3]; in water): soluble |
| CC(C)(C)C(O)(CCc1ccc(Cl)cc1)Cn1cncn1 (centres unmarked) [Microban TZ, Tebuconazole] |  |  |  | Fairly soluble |  |
| CCCC1COC(Cn2cncn2)(c2ccc(Cl)cc2Cl)O1 (centres unmarked) [Microban PZ, Propiconazole] |  |  |  | Fairly soluble |  |
